Legend:
[1] = system: DU-4475; assay: normalised viability (% of control), CellTiter-Blue; higher = more viable cells (about 100 = DMSO control); details: 3000 nM; incubation time: 72 h
Protocol: (§1)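 DSRT, CellTiter-Blue viability, 72 h incubation. Signal is normalised to DMSO and benzethonium chloride controls. Value is the normalised response at dose 8.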

[2] = system: CAL-51; assay: as above; details: 3000 nM; incubation time: 72 h
Protocol: as §1

[3] = system: CAL-148; assay: as above; details: 3000 nM; incubation time: 72 h
Protocol: as §1

[4] = system: HDQ-P1; assay: as above; details: 3000 nM; incubation time: 72 h
Protocol: as §1

[5] = system: CAL-85-1; assay: as above; details: 3000 nM; incubation time: 72 h
Protocol: as §1

[6] = system: MDA-MB-453; assay: as above; details: 3000 nM; incubation time: 72 h
Protocol: as §1

[7] = system: DU-4475; assay: as above; details: 1000 nM; incubation time: 72 h
Protocol: (§2)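 DSRT, CellTiter-Blue viability, 72 h incubation. Signal is normalised to DMSO and benzethonium chloride controls. Value is the normalised response at dose 7.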

[8] = system: CAL-51; assay: as above; details: 1000 nM; incubation time: 72 h
Protocol: as §2

[9] = system: CAL-148; assay: as above; details: 1000 nM; incubation time: 72 h
Protocol: as §2

[10] = system: HDQ-P1; assay: as above; details: 1000 nM; incubation time: 72 h
Protocol: as §2

[11] = system: CAL-85-1; assay: as above; details: 1000 nM; incubation time: 72 h
Protocol: as §2

[12] = system: MDA-MB-453; assay: as above; details: 1000 nM; incubation time: 72 h
Protocol: as §2

[13] = system: HCC1937; details: 72 h
Summary of the method: (§3)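 A 20 µl suspension of breast cancer cells was placed in 384-well plates that already contained compound at 5 concentrations in 10-fold steps across a compound-specific 10,000-fold range, and the plates were left for 72 h. CellTox Green fluorescence at 485/520 nm gave cell death, and CellTiter-Glo luminescence, read after 10 min at room temperature, gave viability. Each plate was normalised to 0.1 % DMSO and a positive kill control. EC50 was fitted from the curves and censored at the top concentration.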

[14] = system: CAL-51; details: 72 h
Summary of the method: as §3

[15] = system: MCF-10A; details: 72 h
Summary of the method: as §3

[16] = system: BT-474; details: 72 h
Summary of the method: as §3

[17] = system: MDA-MB-436; details: 72 h
Summary of the method: as §3

[18] = system: BT-549; details: 72 h
Summary of the method: as §3

[19] = system: CAL-85-1; details: 72 h
Summary of the method: as §3

[20] = system: MDA-MB-468; details: 72 h
Summary of the method: as §3

[21] = system: MDA-MB-453; details: 72 h
Summary of the method: as §3

[22] = system: SK-BR-3; details: 72 h
Summary of the method: as §3

[23] = system: MDA-MB-231; details: 72 h
Summary of the method: as §3

[24] = system: DU-4475; assay: normalised viability (% of control), CellTiter-Blue; higher = more viable cells (100 = DMSO, 0 = benzethonium chloride kill control); details: 1 nM; incubation time: 72 h
Protocol: (§4)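 DSRT, CellTiter-Blue viability, 72 h incubation. Signal is normalised to DMSO and benzethonium chloride controls. Value is the normalised response at dose 1.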

[25] = system: HCC1937; assay: as above; details: 1 nM; incubation time: 72 h
Protocol: as §4

[26] = system: CAL-51; assay: as above; details: 1 nM; incubation time: 72 h
Protocol: as §4

[27] = system: MFM-223; assay: as above; details: 1 nM; incubation time: 72 h
Protocol: as §4

[28] = system: BT-549; assay: as above; details: 1 nM; incubation time: 72 h
Protocol: as §4

[29] = system: HDQ-P1; assay: as above; details: 1 nM; incubation time: 72 h
Protocol: as §4

[30] = system: Hs578T; assay: as above; details: 1 nM; incubation time: 72 h
Protocol: as §4

[31] = system: MDA-MB-468; assay: as above; details: 1 nM; incubation time: 72 h
Protocol: as §4

[32] = system: CAL-120; assay: as above; details: 1 nM; incubation time: 72 h
Protocol: as §4

[33] = system: SK-BR-3; assay: as above; details: 1 nM; incubation time: 72 h
Protocol: as §4

[34] = system: HCC1599; assay: as above; details: 1 nM; incubation time: 72 h
Protocol: as §4

[35] = system: Hs578T; details: 72 h
Summary of the method: as §3

[36] = system: CAL-120; details: 72 h
Summary of the method: as §3

Row | EC50, CellTiter-Glo [13] [nM] | EC50, CellTiter-Glo [16] [nM] | EC50, CellTiter-Glo [17] [nM] | EC50, CellTiter-Glo [18] [nM] | EC50, CellTiter-Glo [20] [nM] | EC50, CellTiter-Glo [21] [nM] | EC50, CellTiter-Glo [22] [nM] | EC50, CellTiter-Glo [23] [nM] | SMILES | normalised viability [1] [%] | normalised viability [2] [%] | normalised viability [3] [%] | normalised viability [4] [%] | normalised viability [5] [%] | normalised viability [6] [%] | normalised viability [7] [%] | normalised viability [8] [%] | normalised viability [9] [%] | normalised viability [10] [%] | normalised viability [11] [%] | normalised viability [12] [%] | EC50, CellTiter-Glo [14] [nM] | EC50, CellTiter-Glo [15] [nM] | EC50, CellTiter-Glo [19] [nM] | normalised viability [24] [%] | normalised viability [25] [%] | normalised viability [26] [%] | normalised viability [27] [%] | normalised viability [28] [%] | normalised viability [29] [%] | normalised viability [30] [%] | normalised viability [31] [%] | normalised viability [32] [%] | normalised viability [33] [%] | normalised viability [34] [%] | EC50, CellTiter-Glo [35] [nM] | EC50, CellTiter-Glo [36] [nM]
1 | 6180 | 2390 | 2670 | 2460 | 1700 | 2920 | 2160 | 2590 | CN(C)C[C@@H]1CCn2cc(c3ccccc32)C2=C(C(=O)NC2=O)c2cn(c3ccccc23)CCO1 [Ruboxistaurin] | 61.1 | 70.4 | 79.4 | 74.2 | 106 | 74.2 | 73.9 | 76.8 | 101 | 67.1 | 122 | 102 | 2770 | 7230 | 3470 | 97 | 106 | 98.9 | 104 | 91.4 | 70.7 | 94.8 | 96.8 | 120 | 99.3 | 120 |  | 
2 | 126 | 6900 | 607 | 5420 | 3330 | 9.61 | 414 |  | Cn1cncc1[C@@](N)(c1ccc(Cl)cc1)c1ccc2c(c1)c(-c1cccc(Cl)c1)cc(=O)n2C [Tipifarnib] | 42 | 63.4 | 42.6 | 66.8 | 65.2 | 50.1 | 40.6 | 59.9 | 42.9 | 66.6 | 62.8 | 49.1 | 82.5 | 237 | 9990 | 104 | 89 | 98.4 | 87.6 | 120 | 105 | 93.2 | 105 | 78 | 92.5 | 90.4 | 7870 | 1370
